This note sets out measurements from patent US10800782B2, “Inhibitors of cellular metabolic processes” (Agios Pharmaceuticals, Inc., priority 2016, dated 2020).

The experiment has as its target T1, MAT2A (Homo sapiens, UniProt P31153).
T1 construct: His6; made in house; host or cells: SF9 insect cells
The experiment in a line: MAT2A biochemical assay (colorimetric inorganic phosphate detection, PiColorLock). The following applies: recombinant His6-tagged MAT2A 1 μg/ml; 60 minutes preincubation at 25° C.; L-Met 80 μM, ATP 100 μM; 60 minutes reaction; read at 623 nm; read-out: MAT2A Inhibition Score. The protocol:
In the reaction catalyzed by MAT2A enzyme, L-Met and ATP were converted to SAM, inorganic phosphate, and inorganic diphosphate. […] The concentration of malachite green phosphomolybdate produced in the detection reaction is thus directly related to the quantity of product produced by the MAT2A enzyme. Multiple commercial kits exist for this method of phosphate detection and quantification, such as PiColorLock Gold (Innova Biosciences). Typical reaction was performed in 50 μl final volume, containing buffer (Tris, pH 8.0, 50 mM KCl, 15 mM MgCl2, 300 uM EDTA, bovine serum albumin at 0.005% w/v) and 1 μg/ml MAT2A. Compounds were added in 1 μl of DMSO at the desired concentration; a typical dose response curve contained ten points with three-fold dilution between compound concentrations. […] The reaction was allowed to proceed for 60 minutes at room temperature then halted by the addition of 13 μl of PiColor Lock reagent. After a further 5 minutes of incubation at room temperature, […] of PiColor Stabilizer was added and the reactions were further incubated at 25° C. for 25 minutes. […] Recombinant MAT2A protein was expressed in SF9 insect cells and purified by metal chelate affinity chromatography, using methods well known in the art. After expression of His6-tagged MAT2A cells were disrupted by 4 passes through an M-Yl 10 Micro fluidizer (Microfluidics) set to 500 psi, and then centrifuged at 22,000 rcf for 20 min at 4° C. The supernatant was harvested and loaded at 15 cm/h on a Histrap FF 5*1 ml column (GE) which was equilibrated with 50 mM Tris, 500 mM NaCl, pH7.4. Host cell contaminants were removed by washing the column with equilibration buffer followed by equilibration buffer containing 20 mM imidazole and 60 mM imidazole to baseline. MAT2A protein was eluted by the addition of buffer containing 250 mM imidazole, dialized into 50 mM NaCl, 50 mM Tris, pH 7.4, flash frozen in liquid nitrogen, and stored at −80° C. until use.

T1 sequence (P31153 whole entry): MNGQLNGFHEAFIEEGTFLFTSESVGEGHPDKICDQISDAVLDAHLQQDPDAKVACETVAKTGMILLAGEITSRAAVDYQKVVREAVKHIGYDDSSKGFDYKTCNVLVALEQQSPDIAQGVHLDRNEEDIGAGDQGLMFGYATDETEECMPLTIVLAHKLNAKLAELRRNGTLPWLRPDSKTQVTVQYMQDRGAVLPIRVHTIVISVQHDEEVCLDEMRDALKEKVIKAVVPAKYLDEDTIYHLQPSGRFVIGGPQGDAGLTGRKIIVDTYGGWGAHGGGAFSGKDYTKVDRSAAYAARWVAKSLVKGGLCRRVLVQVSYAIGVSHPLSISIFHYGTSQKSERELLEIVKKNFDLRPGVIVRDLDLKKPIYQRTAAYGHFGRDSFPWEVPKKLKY

For `COc1ccc(-c2c(Nc3cnc(C#N)cn3)[nH]c3c(-c4ccccc4)c(-c4ccccc4)nn3c2=O)cc1` [Compound 129, 5-(6-(4-methoxyphenyl)-7-oxo-2,3-diphenyl-4,7-dihydropyrazolo[1,5-a]pyrimidin-5-ylamino)pyrazine-2-carbonitrile], the IC50 is under 100 nM.

For the compound `COc1ccc(-c2c(Nc3cnc(N)cn3)[nH]c3c(-c4ccccc4)c(-c4ccccc4)nn3c2=O)cc1` [Compound 130, 5-((5-aminopyrazin-2-yl)amino)-6-(4-methoxyphenyl)-2,3-diphenylpyrazolo[1,5-a]pyrimidin-7(4H)-one], the IC50 was under 100 nM.

`COc1ccc(-c2c(Nc3cncc(C#N)n3)[nH]c3c(-c4ccccc4)c(-c4ccccc4)nn3c2=O)cc1` [Compound 131, 6-(6-(4-methoxyphenyl)-7-oxo-2,3-diphenyl-4,7-dihydropyrazolo[1,5-a]pyrimidin-5-ylamino)pyrazine-2-carbonitrile]: the IC50 is under 100 nM.

As for `COc1ccc(-c2c(Nc3ncncn3)[nH]c3c(-c4ccccc4)c(-c4ccccc4)nn3c2=O)cc1` [Compound 132, 5-((1,3,5-triazin-2-yl)amino)-6-(4-methoxyphenyl)-2,3-diphenylpyrazolo[1,5-a]pyrimidin-7(4H)-one], the IC50 was under 100 nM.

On to `COc1ccc(-c2c(Nc3cnncn3)[nH]c3c(-c4ccccc4)c(-c4ccccc4)nn3c2=O)cc1` [Compound 133, 5-((1,2,4-triazin-5-yl)amino)-6-(4-methoxyphenyl)-2,3-diphenylpyrazolo[1,5-a]pyrimidin-7(4H)-one], for which the IC50 is under 100 nM.

In the case of `COc1ccc(-c2c(Nc3ncnc(N)n3)[nH]c3c(-c4ccccc4)c(-c4ccccc4)nn3c2=O)cc1` [Compound 134, 5-((4-amino-1,3,5-triazin-2-yl)amino)-6-(4-methoxyphenyl)-2,3-diphenylpyrazolo[1,5-a]pyrimidin-7(4H)-one], the IC50 was under 100 nM.

With `CNc1ncnc(Nc2[nH]c3c(-c4ccccc4)c(-c4ccccc4)nn3c(=O)c2-c2ccc(OC)cc2)n1` [Compound 135, 6-(4-methoxyphenyl)-5-((4-(methylamino)-1,3,5-triazin-2-yl)amino)-2,3-diphenylpyrazolo[1,5-a]pyrimidin-7(4H)-one], the IC50 is under 100 nM.

As to `COc1ccc(-c2c(Nc3ncnc(O)n3)[nH]c3c(-c4ccccc4)c(-c4ccccc4)nn3c2=O)cc1` [Compound 136, 5-((4-hydroxy-1,3,5-triazin-2-yl)amino)-6-(4-methoxyphenyl)-2,3-diphenylpyrazolo[1,5-a]pyrimidin-7(4H)-one], the IC50 is under 100 nM.

In the case of `COc1ccc(-c2c(Nc3nccs3)[nH]c3c(-c4ccccc4)c(-c4ccccc4)nn3c2=O)cc1` [Compound 137, 6-(4-methoxyphenyl)-2,3-diphenyl-5-(thiazol-2-ylamino)pyrazolo[1,5-a]pyrimidin-7(4H)-one], the IC50 was under 100 nM.

As to `COc1ccc(-c2c(Nc3ccon3)[nH]c3c(-c4ccccc4)c(-c4ccccc4)nn3c2=O)cc1` [Compound 138, 5-(isoxazol-3-ylamino)-6-(4-methoxyphenyl)-2,3-diphenylpyrazolo[1,5-a]pyrimidin-7(4H)-one], the IC50 was under 100 nM.

Turning to `COc1ccc(-c2c(Nc3cnoc3)[nH]c3c(-c4ccccc4)c(-c4ccccc4)nn3c2=O)cc1` [Compound 139, 5-(isoxazol-4-ylamino)-6-(4-methoxyphenyl)-2,3-diphenylpyrazolo[1,5-a]pyrimidin-7(4H)-one], the IC50 was under 100 nM.

As for `COc1ccc(-c2c(Nc3ccno3)[nH]c3c(-c4ccccc4)c(-c4ccccc4)nn3c2=O)cc1` [Compound 140, 5-(isoxazol-5-ylamino)-6-(4-methoxyphenyl)-2,3-diphenylpyrazolo[1,5-a]pyrimidin-7(4H)-one], the IC50 is under 100 nM.

In the case of `COc1ccc(-c2c(Nc3nccn3C)[nH]c3c(-c4ccccc4)c(-c4ccccc4)nn3c2=O)cc1` [Compound 141, 6-(4-methoxyphenyl)-5-(1-methyl-1H-imidazol-2-ylamino)-2,3-diphenylpyrazolo[1,5-a]pyrimidin-7(4H)-one], the IC50 was under 100 nM.

For `COc1ccc(-c2c(Nc3ncc[nH]3)[nH]c3c(-c4ccccc4)c(-c4ccccc4)nn3c2=O)cc1` [Compound 142, 5-((1H-imidazol-2-yl)amino)-6-(4-methoxyphenyl)-2,3-diphenylpyrazolo[1,5-a]pyrimidin-7(4H)-one], the IC50 was under 100 nM.

With `COc1ccc(-c2c(NC3=NCCS3)[nH]c3c(-c4ccccc4)c(-c4ccccc4)nn3c2=O)cc1` [Compound 143, 5-((4,5-dihydrothiazol-2-yl)amino)-6-(4-methoxyphenyl)-2,3-diphenylpyrazolo[1,5-a]pyrimidin-7(4H)-one], the IC50 is under 100 nM.

As for `COc1ccc(-c2c(Nc3nncs3)[nH]c3c(-c4ccccc4)c(-c4ccccc4)nn3c2=O)cc1` [Compound 144, 5-((1,3,4-thiadiazol-2-yl)amino)-6-(4-methoxyphenyl)-2,3-diphenylpyrazolo[1,5-a]pyrimidin-7(4H)-one], the IC50 is under 100 nM.

With `COc1ccc(-c2c(Nc3nnc(N)s3)[nH]c3c(-c4ccccc4)c(-c4ccccc4)nn3c2=O)cc1` [Compound 145, 5-((5-amino-1,3,4-thiadiazol-2-yl)amino)-6-(4-methoxyphenyl)-2,3-diphenylpyrazolo[1,5-a]pyrimidin-7(4H)-one], the IC50 is under 100 nM.

Regarding `COc1ccc(-c2c(Nc3nnc(O)s3)[nH]c3c(-c4ccccc4)c(-c4ccccc4)nn3c2=O)cc1` [Compound 146, 5-((5-hydroxy-1,3,4-thiadiazol-2-yl)amino)-6-(4-methoxyphenyl)-2,3-diphenylpyrazolo[1,5-a]pyrimidin-7(4H)-one], the IC50 was under 100 nM.

On to `COc1ccc(-c2c(Nc3ncns3)[nH]c3c(-c4ccccc4)c(-c4ccccc4)nn3c2=O)cc1` [Compound 147, 5-((1,2,4-thiadiazol-5-yl)amino)-6-(4-methoxyphenyl)-2,3-diphenylpyrazolo[1,5-a]pyrimidin-7(4H)-one], for which the IC50 was under 100 nM.

Turning to `COc1ccc(-c2c(Nc3nc(OC)ns3)[nH]c3c(-c4ccccc4)c(-c4ccccc4)nn3c2=O)cc1` [Compound 148, 5-((3-methoxy-1,2,4-thiadiazol-5-yl)amino)-6-(4-methoxyphenyl)-2,3-diphenylpyrazolo[1,5-a]pyrimidin-7(4H)-one], the IC50 is under 100 nM.

Take `COc1ccc(-c2c(Nc3nonc3N)[nH]c3c(-c4ccccc4)c(-c4ccccc4)nn3c2=O)cc1` [Compound 149, 5-((4-amino-1,2,5-oxadiazol-3-yl)amino)-6-(4-methoxyphenyl)-2,3-diphenylpyrazolo[1,5-a]pyrimidin-7(4H)-one]: the IC50 was under 100 nM.

In the case of `CCOC(=O)c1ncsc1Nc1[nH]c2c(-c3ccccc3)c(-c3ccccc3)nn2c(=O)c1-c1ccc(OC)cc1` [Compound 150, ethyl 5-((6-(4-methoxyphenyl)-7-oxo-2,3-diphenyl-4,7-dihydropyrazolo[1,5-a]pyrimidin-5-yl)amino)thiazole-4-carboxylate], the IC50 was under 100 nM.

Take `COc1ccc(-c2c(Nc3ccncn3)[nH]c3c(C4=CCCCC4)c(-c4ccccc4)nn3c2=O)cc1` [Compound 155, 3-(cyclohex-1-en-1-yl)-6-(4-methoxyphenyl)-2-phenyl-5-(pyrimidin-4-ylamino)pyrazolo[1,5-a]pyrimidin-7(4H)-one]: the IC50 is under 100 nM.
